Results reported in ChEMBL document CHEMBL1201862, “PubChem BioAssay data set” (2004).
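Assay format: 96-well plates, 48-hour exposure. GI50 marks 50% less growth.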 Calls of active or inactive are those of the source. No stated cut-off is given here; in the data, active = GI50 up to about 1.1 µM and inactive = higher.

Experiments:
Experiment in all cases: inhibition of tumour cell growth, NCI panel, 48 h
COLO 205 = tested on: COLO 205
SNB-75 = tested on: SNB-75
U-251 = tested on: U-251
SW-620 = tested on: SW-620
DMS-114 = tested on: DMS-114
Malme-3M = tested on: Malme-3M
A549 = tested on: A549
IGROV-1 = tested on: IGROV-1
XF498 = tested on: XF498
CAKI-1 = tested on: CAKI-1
TK-10 = tested on: TK-10
HCT-15 = tested on: HCT-15
NCI-H23 = tested on: NCI-H23
EKVX = tested on: EKVX
ACHN = tested on: ACHN
NCI-H226 = tested on: NCI-H226
CCRF-CEM = tested on: CCRF-CEM
UACC-257 = tested on: UACC-257
KM12 = tested on: KM12
HT-29 = tested on: HT-29
LXFL 529 = tested on: LXFL 529
SF-539 = tested on: SF-539
SF-295 = tested on: SF-295
HOP-92 = tested on: HOP-92
HOP-62 = tested on: HOP-62
DMS-273 = tested on: DMS-273
SK-MEL-5 = tested on: SK-MEL-5
OVCAR-8 = tested on: OVCAR-8
SK-MEL-28 = tested on: SK-MEL-28
K562 = tested on: K562
786-0 = tested on: 786-0
OVCAR-5 = tested on: OVCAR-5
UACC-62 = tested on: UACC-62
SNB-19 = tested on: SNB-19
HL-60 = tested on: HL-60
HCC 2998 = tested on: HCC 2998
RPMI-8226 = tested on: RPMI-8226
DLD-1 = tested on: DLD-1
M14 = tested on: M14
SF-268 = tested on: SF-268
KM-20L2 = tested on: KM-20L2
OVCAR-4 = tested on: OVCAR-4
NCI-H522 = tested on: NCI-H522
LOX IMVI = tested on: LOX IMVI
A498 = tested on: A498
UO-31 = tested on: UO-31
M19-MEL = tested on: M19-MEL
RXF 631 = tested on: RXF 631
NCI-H460 = tested on: NCI-H460
HCT-116 = tested on: HCT-116
SK-OV-3 = tested on: SK-OV-3
SNB-78 = tested on: SNB-78
RXF 393 = tested on: RXF 393
OVCAR-3 = tested on: OVCAR-3
SN12C = tested on: SN12C
MOLT-4 = tested on: MOLT-4
SR = tested on: SR
SK-MEL-2 = tested on: SK-MEL-2

Measured: GI50

COC(=O)C(Cc1c[nH]c2ccccc12)NC(=O)C(Cc1c[nH]c2ccccc12)NC(=O)OCc1ccccc1 (stereo not given)
inactive: COLO 205 16.8 µM | SNB-75 21.6 µM | U-251 16.9 µM | SW-620 17.5 µM | DMS-114 19.4 µM | Malme-3M 39.6 µM | A549 17.8 µM | IGROV-1 19.3 µM | XF498 14.8 µM | CAKI-1 19.9 µM | TK-10 22.8 µM | NCI-H23 17.3 µM | EKVX 18.6 µM | ACHN 21.6 µM | NCI-H226 22.1 µM | CCRF-CEM 21.7 µM | UACC-257 > 100 µM | KM12 19.1 µM | HT-29 20 µM | LXFL 529 16.7 µM | SF-539 16.7 µM | SF-295 17.9 µM | HOP-92 20 µM | HOP-62 19.7 µM | DMS-273 16 µM | SK-MEL-5 29.5 µM | OVCAR-8 17.9 µM | SK-MEL-28 17.7 µM | K562 23.6 µM | 786-0 16.2 µM | OVCAR-5 17.6 µM | UACC-62 19.3 µM | SNB-19 17.5 µM | HL-60 20.8 µM | HCC 2998 17.8 µM | RPMI-8226 11.7 µM | DLD-1 18.5 µM | M14 18.2 µM | SF-268 19.1 µM | KM-20L2 18.2 µM | OVCAR-4 16.4 µM | NCI-H522 16.3 µM | LOX IMVI 18.3 µM | A498 72.8 µM | UO-31 19.3 µM | M19-MEL 18.4 µM | RXF 631 24 µM | NCI-H460 18.1 µM | HCT-116 17.9 µM | SK-OV-3 19.7 µM | SNB-78 25.8 µM | RXF 393 19.5 µM | OVCAR-3 15.5 µM | SN12C 17.1 µM
17.4 µM: HCT-15

O=C(/C=C/c1ccc(OCCCOc2ccc(/C=C/C(=O)c3ccccc3)cc2)cc1)c1ccccc1
inactive: COLO 205 > 100 µM | SNB-75 33.4 µM | U-251 > 10 µM | SW-620 > 100 µM | DMS-114 > 100 µM | MOLT-4 > 100 µM | Malme-3M > 100 µM | SR > 100 µM | A549 > 100 µM | IGROV-1 > 100 µM | TK-10 > 100 µM | NCI-H23 > 100 µM | EKVX > 100 µM | ACHN > 100 µM | NCI-H226 36.3 µM | CCRF-CEM > 100 µM | UACC-257 > 100 µM | HT-29 > 100 µM | LXFL 529 > 100 µM | SF-539 > 100 µM | SF-295 > 100 µM | HOP-62 > 100 µM | DMS-273 > 100 µM | SK-MEL-5 > 100 µM | OVCAR-8 > 100 µM | SK-MEL-28 > 100 µM | K562 > 100 µM | 786-0 57.4 µM | UACC-62 > 100 µM | SNB-19 63.2 µM | HL-60 > 100 µM | HCC 2998 > 100 µM | RPMI-8226 50.7 µM | DLD-1 > 100 µM | M14 > 100 µM | SF-268 > 100 µM | KM-20L2 > 100 µM | OVCAR-4 > 100 µM | LOX IMVI > 100 µM | A498 > 100 µM | UO-31 > 100 µM | M19-MEL > 100 µM | RXF 631 51.2 µM | NCI-H460 > 100 µM | HCT-116 77.4 µM | RXF 393 > 100 µM | OVCAR-3 > 100 µM | SN12C > 100 µM | SK-MEL-2 > 100 µM
> 100 µM: HCT-15
